Experimental data published in US20230257716A1 (priority 2020, published 2023).
Entries after “also recorded” stand apart in the source; their conditions may differ.

Assays:
basal organoids = assay: Growth factor evaluation for basal organoids after sedimentation and clonogenic culture; type: cell-based, human; design: basal organoid growth: dose or concentration left out as unconfirmed
Excerpt: (§1) Screening exogenous growth factors in organoid culture.
Density sedimentation of basal cells. Organoid cultures within 2-3 weeks of primary plating were dissociated with 1 U/ml neutral protease (Worthington, Cat LS02100) and 100 KU of DNase I in organoid media. Basal organoids were then collected by gravity sedimentation and the supernatant was either aspirated or collected for downstream use. Basal organoids were then further fractionated on a custom Ficoll-Paque gradient (4 vol Ficoll-Paque to 1 vol PBS) and centrifuged at 300×g for 10 minutes at room temperature. The supernatant was aspirated and the organoid pellet was resuspended in 10 ml PBS in a 15 ml conical tube, collected by gravity sedimentation, and plated into ECM as described above.

AT2 organoids = assay: AT2 organoid proliferation with niche factors and PORCUPINE inhibitor
Procedure: Screening exogenous growth factors in organoid culture. Distal airway cells were isolated and plated as above with the following exceptions: ADMEM/F12 was used instead of organoid medium during elastase digestion of lung tissue, cells were serially diluted and filtered through a 40 micron cell strainer and counted with a hemocytometer. 1000 viable epithelial cells (by Trypan blue exclusion, size, and morphology) per μL ECM were plated per 5 μL Matrigel droplet per well. Base media consisted of organoid media lacking A83-01, EGF, NOGGIN, WNT3A or RSPO1. EGF (final 50 ng/ml, R&D), NOGGIN (final 100 ng/ml, R&D), WNT3A (final 100 ng/ml, R&D), RSPO1 (final 500 ng/ml, Peprotech) or the PORCUPINE inhibitor C59 (final 1μM, Biogems) were added singly or in combination to base media. Images were obtained ten days after primary plating with an inverted light microscope at 5X magnification. Each condition was plated in quadruplicate and organoid formation was quantified using the analyze particle (threshold=4902 pixels) plugin in ImageJ as previously described.

TNFRSF12A^hi basal cells [1] = conditions: basal organoids from FACS-purified TNFRSF12A^hi EPCAM+ITGA6+ITGB4+ cells, 14 days culture
Procedure: NOTCH manipulation in TNFRSF12A^hi basal cells. TNFRSF12A^hi basal cells were isolated and cultured as above. 24 hours after plating, media was changed to lung organoid media with either vehicle (0.1% DMSO), 1 μg/ml JAG1 peptide (Anaspec), 500 nM soluble recombinant NOTCH receptor inhibitor Delta Like Ligand 4 mutant (DLL4E12), or 1 μM gamma secretase inhibitor DBZ (Tocris). After 14 days of culture, biochemical estimation of proliferation was carried out by resazurin reduction assay (Alamar Blue, Thermo Fisher) for 16 hours according to manufacturer's protocol and resazurin reduction was measured via fluorescence readout on a Biotek Synergy H1 plate reader according to the manufacturer's protocol. Reference blank consisted of Alamar Blue reagent incubated in parallel media without cells.

TNFRSF12A^hi basal cells [2] = conditions: NOTCH inhibition
Procedure: Quantitation of SCGB1A1 and SFTPC mRNA expression in TNFRSF12A^hi basal cells. FACS-isolated basal cells cultured in the above conditions were fixed in 2% paraformaldehyde in PBS for one hour at room temperature, embedded in HistoGel (Thermo Fisher HG-4000-012), dehydrated and paraffin embedded en bloc. One hundred serial sections were obtained at 10 micron thickness, and immunocytochemistry and in situ hybridization were performed at each 100 micron level. Confocal images were acquired in a blinded manner and organoids were defined as a cluster of 3 or greater DAPI nuclei. Channels were acquired using identical parameters for DAPI, Alexa 488 (SFTPC RNA in situ hybridization), Texas Red (SCGB1A1 RNA in situ hybridization), and Alexa 647 (KRTS immunostaining). Z-stacks were collected and images were processed in ImageJ and maximum intensity Z projections were used to quantitate SCGB1A1 and SFTPC RNA in situ in Cell Profiler using the RNA Proximity Ligase Assay counting pipeline.

[3] = system: PR8 strain of H1N1 modified to express GFP; assay: microbe, parasite or virus in culture; type: cell-based, influenza H1N1 (in human distal lung organoids)
[4] = system: human distal lung organoids; assay: Screening exogenous growth factors in distal lung organoid culture; type: cell-based; conditions: single cell suspensions of distal lung, feeder-free; EGF and NOGGIN in combination
Excerpt: as §1

For Cc1cc(-c2ccc(CC(=O)Nc3ccc(-c4cccnc4)cc3)cc2)ccn1 [C59, reference compound], the basal organoid growth (basal organoids; after d14 sedimentation, clonogenic culture, C59) was “growth was not significantly inhibited; also recorded: Growth was not affected” and the AT2 organoid growth (AT2 organoids; PORCUPINE inhibitor C59 (1 μM)) was “attenuated AT2 organoid growth”.
C[C@H](NC(=O)Cc1cc(F)cc(F)c1)C(=O)N[C@@H]1C(=O)N(C)c2ccccc2-c2ccccc21 [DBZ] was tested, and the “proliferation (resazurin dye reduction)” value (TNFRSF12A^hi basal cells [1]) was “significantly increased proliferation” and the “SFTPC mRNA expression” value (TNFRSF12A^hi basal cells [2]) was “upregulating SFTPC mRNA”.
In the case of Nc1ccn([C@@H]2O[C@H](CO)[C@@H](O)[C@H]2F)c(=O)n1 [FdC, 2′-deoxy-2′-fluorocytidine], the “inhibition of H1N1 viral infection or replication (GFP attenuation)” value [3] is reported as “efficacious with EC50 consistent with previous reports” and the IC50 ([3]; Influenza A virus, read-out: IC50 on influenza infectivity and replication (dose response curve)) is reported as 340 nM.
For CC(=O)N[C@H]1[C@H]([C@H](O)[C@H](O)CO)OC(C(=O)O)=C[C@@H]1N=C(N)N [zanamivir], the “IC50 on influenza infectivity and replication (dose response curve)” value [3] was “did not exhibit a dose response curve” and the “inhibition of H1N1 viral infection or replication (GFP attenuation)” value [3] was “did not inhibit H1N1 viral infection or replication”.
For “EGF: recombinant human EGF (R&D Systems)”, the “basal organoid growth with exogenous growth factors” value (basal organoids; pure basal cell cultures, EGF and Noggin together) was “sufficient for maximal growth”, the “distal lung organoid growth with exogenous growth factors” value [4] was “optimal” and the “clonal AT2 organoid proliferation with exogenous growth factors” value (AT2 organoids; EGF and NOGGIN together, WNT-3A and RSPONDIN-1 added exogenously) was “sufficient for clonal AT2 organoid proliferation”.
